Assay results: patent US9340590B2 (priority 2011, dated 2016)
Positions of bridges follow the written chain, without caps; N, C: chain ends. Residues, ends and D or L forms follow the SMILES beside them.

Legend:
Assay in all cases: cell-based
hNav1.3 = hNav1.3 (Homo sapiens, UniProt Q9NY46); conditions: Table 22; IonWorks Quattro, use; […]; read-out: IWQ Use Nav1.3
hNav1.5 = hNav1.5 (Homo sapiens, UniProt Q14524); conditions: Table 22; IonWorks Quattro, use; […]; read-out: IWQ Use Nav1.5
hNav1.7 = hNav1.7 (Homo sapiens, UniProt Q15858); format: cell-based; conditions: Table 22; IonWorks Quattro, use; […]; read-out: IWQ Use Nav1.7

hNav1.3, sequence (Q9NY46 whole entry, looked up): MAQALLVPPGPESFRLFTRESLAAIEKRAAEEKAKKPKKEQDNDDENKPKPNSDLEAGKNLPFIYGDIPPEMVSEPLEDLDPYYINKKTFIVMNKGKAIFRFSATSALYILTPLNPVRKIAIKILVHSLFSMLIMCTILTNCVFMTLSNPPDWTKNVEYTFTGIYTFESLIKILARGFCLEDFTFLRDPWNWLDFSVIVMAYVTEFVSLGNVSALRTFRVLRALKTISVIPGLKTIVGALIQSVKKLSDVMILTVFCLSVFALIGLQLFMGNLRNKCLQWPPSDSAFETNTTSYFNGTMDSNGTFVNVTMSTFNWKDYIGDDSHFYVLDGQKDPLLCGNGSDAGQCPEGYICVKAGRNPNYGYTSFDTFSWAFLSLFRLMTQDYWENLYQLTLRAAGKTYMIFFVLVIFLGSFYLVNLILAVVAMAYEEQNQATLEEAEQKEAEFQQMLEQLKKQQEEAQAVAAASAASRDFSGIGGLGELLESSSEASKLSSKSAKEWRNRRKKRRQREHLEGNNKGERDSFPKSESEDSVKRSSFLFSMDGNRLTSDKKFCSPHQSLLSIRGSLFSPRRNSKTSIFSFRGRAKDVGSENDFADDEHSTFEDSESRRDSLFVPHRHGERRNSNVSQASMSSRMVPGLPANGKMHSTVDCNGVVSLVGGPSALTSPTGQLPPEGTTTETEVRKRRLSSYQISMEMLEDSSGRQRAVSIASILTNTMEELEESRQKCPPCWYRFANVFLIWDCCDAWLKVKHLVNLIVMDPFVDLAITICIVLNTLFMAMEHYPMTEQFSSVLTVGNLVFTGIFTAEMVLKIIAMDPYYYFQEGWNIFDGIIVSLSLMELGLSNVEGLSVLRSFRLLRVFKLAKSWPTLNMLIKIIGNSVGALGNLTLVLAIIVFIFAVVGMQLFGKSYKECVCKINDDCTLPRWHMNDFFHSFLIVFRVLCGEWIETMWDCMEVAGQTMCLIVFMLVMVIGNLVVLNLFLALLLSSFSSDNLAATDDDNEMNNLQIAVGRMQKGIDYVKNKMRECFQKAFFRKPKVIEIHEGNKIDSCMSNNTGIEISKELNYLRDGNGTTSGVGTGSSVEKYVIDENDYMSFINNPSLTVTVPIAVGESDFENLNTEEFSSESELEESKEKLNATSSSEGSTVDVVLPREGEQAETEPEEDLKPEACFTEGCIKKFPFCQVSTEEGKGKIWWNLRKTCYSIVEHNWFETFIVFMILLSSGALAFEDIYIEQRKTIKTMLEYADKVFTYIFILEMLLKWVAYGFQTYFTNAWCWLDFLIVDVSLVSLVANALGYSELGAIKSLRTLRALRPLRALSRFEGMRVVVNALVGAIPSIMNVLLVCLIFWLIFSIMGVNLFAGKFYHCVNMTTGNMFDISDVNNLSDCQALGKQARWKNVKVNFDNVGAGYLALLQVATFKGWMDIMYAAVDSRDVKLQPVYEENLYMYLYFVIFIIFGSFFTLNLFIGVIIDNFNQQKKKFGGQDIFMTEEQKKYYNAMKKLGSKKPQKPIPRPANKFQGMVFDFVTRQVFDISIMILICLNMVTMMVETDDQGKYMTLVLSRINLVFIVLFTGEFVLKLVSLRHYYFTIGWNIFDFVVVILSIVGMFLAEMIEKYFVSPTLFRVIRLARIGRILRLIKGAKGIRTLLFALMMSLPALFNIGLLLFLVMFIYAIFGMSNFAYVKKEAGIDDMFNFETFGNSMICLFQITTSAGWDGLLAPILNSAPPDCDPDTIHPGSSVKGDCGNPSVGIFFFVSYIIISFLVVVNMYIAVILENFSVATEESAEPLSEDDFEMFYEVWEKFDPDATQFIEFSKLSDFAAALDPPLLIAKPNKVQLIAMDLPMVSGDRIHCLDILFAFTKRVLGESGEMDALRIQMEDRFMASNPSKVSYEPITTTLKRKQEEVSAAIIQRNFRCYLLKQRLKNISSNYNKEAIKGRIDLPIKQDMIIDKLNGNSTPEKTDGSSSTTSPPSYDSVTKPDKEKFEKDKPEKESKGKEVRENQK
hNav1.5, sequence (Q14524 whole entry, looked up): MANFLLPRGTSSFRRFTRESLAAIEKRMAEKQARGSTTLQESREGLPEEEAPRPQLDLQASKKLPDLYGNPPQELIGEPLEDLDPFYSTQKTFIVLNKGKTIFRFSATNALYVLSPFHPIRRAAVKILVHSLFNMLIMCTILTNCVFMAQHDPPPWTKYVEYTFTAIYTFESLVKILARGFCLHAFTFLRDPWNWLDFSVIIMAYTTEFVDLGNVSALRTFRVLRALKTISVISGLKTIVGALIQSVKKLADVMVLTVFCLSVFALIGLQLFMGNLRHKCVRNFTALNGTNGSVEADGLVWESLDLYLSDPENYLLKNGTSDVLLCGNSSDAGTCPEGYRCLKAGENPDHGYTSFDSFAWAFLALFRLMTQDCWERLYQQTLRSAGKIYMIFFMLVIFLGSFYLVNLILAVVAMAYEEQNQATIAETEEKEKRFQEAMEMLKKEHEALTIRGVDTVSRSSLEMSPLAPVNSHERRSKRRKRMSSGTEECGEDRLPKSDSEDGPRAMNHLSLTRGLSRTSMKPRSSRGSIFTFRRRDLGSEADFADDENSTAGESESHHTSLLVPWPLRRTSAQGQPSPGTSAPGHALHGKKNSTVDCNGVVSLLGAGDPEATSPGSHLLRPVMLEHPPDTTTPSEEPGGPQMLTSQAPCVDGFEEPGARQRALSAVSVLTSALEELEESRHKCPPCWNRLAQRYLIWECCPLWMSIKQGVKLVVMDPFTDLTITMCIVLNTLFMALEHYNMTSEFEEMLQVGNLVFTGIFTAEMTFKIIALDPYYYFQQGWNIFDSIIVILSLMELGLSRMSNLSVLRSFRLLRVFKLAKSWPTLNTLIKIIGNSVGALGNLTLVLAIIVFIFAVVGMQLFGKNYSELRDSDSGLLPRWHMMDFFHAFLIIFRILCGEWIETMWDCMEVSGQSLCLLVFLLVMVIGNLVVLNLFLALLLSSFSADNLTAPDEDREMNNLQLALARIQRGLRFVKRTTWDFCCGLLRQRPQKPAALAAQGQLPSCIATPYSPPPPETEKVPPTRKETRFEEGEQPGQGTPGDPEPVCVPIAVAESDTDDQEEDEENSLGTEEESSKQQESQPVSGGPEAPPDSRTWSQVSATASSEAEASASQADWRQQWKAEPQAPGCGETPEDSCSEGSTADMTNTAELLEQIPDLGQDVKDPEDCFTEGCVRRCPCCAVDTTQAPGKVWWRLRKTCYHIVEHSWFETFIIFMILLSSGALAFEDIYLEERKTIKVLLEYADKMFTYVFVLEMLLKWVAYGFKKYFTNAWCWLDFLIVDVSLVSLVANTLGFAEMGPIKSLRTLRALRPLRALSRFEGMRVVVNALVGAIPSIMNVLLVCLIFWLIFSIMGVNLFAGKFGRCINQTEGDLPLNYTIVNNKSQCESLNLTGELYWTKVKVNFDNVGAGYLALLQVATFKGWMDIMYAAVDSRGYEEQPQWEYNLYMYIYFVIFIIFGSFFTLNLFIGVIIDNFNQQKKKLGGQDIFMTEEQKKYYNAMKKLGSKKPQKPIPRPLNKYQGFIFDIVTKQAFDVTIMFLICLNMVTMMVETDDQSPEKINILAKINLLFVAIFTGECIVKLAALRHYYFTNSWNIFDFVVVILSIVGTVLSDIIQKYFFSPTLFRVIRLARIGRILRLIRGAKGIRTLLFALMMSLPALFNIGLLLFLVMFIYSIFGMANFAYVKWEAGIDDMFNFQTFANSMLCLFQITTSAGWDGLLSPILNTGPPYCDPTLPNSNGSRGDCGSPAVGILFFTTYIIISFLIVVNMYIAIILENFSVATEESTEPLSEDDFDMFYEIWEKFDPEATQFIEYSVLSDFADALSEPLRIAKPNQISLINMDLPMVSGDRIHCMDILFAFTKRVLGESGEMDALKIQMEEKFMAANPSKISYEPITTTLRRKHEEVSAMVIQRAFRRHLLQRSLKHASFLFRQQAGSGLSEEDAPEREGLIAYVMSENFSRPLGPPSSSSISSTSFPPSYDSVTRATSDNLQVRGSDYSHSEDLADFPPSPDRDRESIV

Row | SMILES | IC50 (hNav1.3) [nM] | IC50 (hNav1.5) [nM] | IC50 (hNav1.7) [nM]
1 | CC[C@H](C)[C@@H]1NC(=O)[C@@H]2CSSC[C@@H]3NC(=O)[C@H](C(C)C)NC(=O)[C@H](CC(C)C)NC(=O)[C@H](CC(N)=O)NC(=O)[C@@H]4CCCN4C(=O)[C@H](CCCNC(=N)N)NC(=O)[C@H](CSSC[C@H](NC(=O)[C@@H](N)CC(=O)O)C(=O)N[C@@H](CC(C)C)C(=O)NCC(=O)N[C@@H](Cc4ccccc4)C(=O)N[C@@H](CCSC)C(=O)N[C@@H](CCCNC(=N)N)C(=O)N[C@@H](CCCCN)C(=O)N2)NC(=O)[C@H](CSSC[C@@H](C(=O)N[C@@H](CCCCN)C(=O)N[C@@H](Cc2ccc(O)cc2)C(=O)N[C@H](C(=O)N[C@@H](Cc2ccccc2)C(N)=O)C(C)C)NC(=O)[C@H](Cc2c[nH]c4ccccc24)NC(=O)[C@H](CCCCN)NC(=O)[C@H](Cc2c[nH]cn2)NC(=O)[C@H](CO)NC(=O)[C@H](CCCNC(=N)N)NC(=O)[C@H](CO)NC3=O)NC(=O)[C@H](CCCCN)NC(=O)[C@H](CC(=O)O)NC(=O)[C@H](CC(N)=O)NC(=O)[C@H](CC(=O)O)NC(=O)[C@@H]2CCCN2C1=O [compound 338] (H-DCLGFMRKCIPDNDKCCRPNLVCSRSHKWCKYVF-NH2; disulfide 2-17, 9-23, 16-30) | 90 | 12300 | 100
2 | CC[C@H](C)[C@@H]1NC(=O)[C@@H]2CSSC[C@@H]3NC(=O)[C@H](C(C)C)NC(=O)[C@H](CC(C)C)NC(=O)[C@H](CC(N)=O)NC(=O)[C@@H]4CCCN4C(=O)[C@H](CCCNC(=N)N)NC(=O)[C@H](CSSC[C@H](NC(=O)[C@@H](N)CC(=O)O)C(=O)N[C@@H](CC(C)C)C(=O)NCC(=O)N[C@@H](Cc4ccccc4)C(=O)N[C@@H](CCSC)C(=O)N[C@@H](CCCNC(=N)N)C(=O)N[C@@H](CCCCN)C(=O)N2)NC(=O)[C@H](CSSC[C@@H](C(=O)N[C@@H](CCCCN)C(=O)N[C@@H](Cc2ccc(O)cc2)C(=O)N[C@H](C(=O)N[C@@H](Cc2ccccc2)C(N)=O)C(C)C)NC(=O)[C@H](Cc2c[nH]c4ccccc24)NC(=O)[C@H](CCCCN)NC(=O)[C@H](Cc2c[nH]cn2)NC(=O)[C@H](CCC(N)=O)NC(=O)[C@H](CCCNC(=N)N)NC(=O)[C@H](CO)NC3=O)NC(=O)[C@H](CCCCN)NC(=O)[C@H](CC(=O)O)NC(=O)[C@H](CC(N)=O)NC(=O)[C@H](CC(=O)O)NC(=O)[C@@H]2CCCN2C1=O [compound 339] (H-DCLGFMRKCIPDNDKCCRPNLVCSRQHKWCKYVF-NH2; disulfide 2-17, 9-23, 16-30) | 90 | 17900 | 140
3 | CC[C@H](C)[C@@H]1NC(=O)[C@@H]2CSSC[C@@H]3NC(=O)[C@H](C(C)C)NC(=O)[C@H](CC(C)C)NC(=O)[C@H](CC(N)=O)NC(=O)[C@@H]4CCCN4C(=O)[C@H](CCCNC(=N)N)NC(=O)[C@H](CSSC[C@H](NC(=O)[C@@H](N)CC(=O)O)C(=O)N[C@@H](CC(C)C)C(=O)NCC(=O)N[C@@H](Cc4ccccc4)C(=O)N[C@@H](CCSC)C(=O)N[C@@H](CCCNC(=N)N)C(=O)N[C@@H](CCCCN)C(=O)N2)NC(=O)[C@H](CSSC[C@@H](C(=O)N[C@@H](CCCCN)C(=O)N[C@@H](Cc2ccc(O)cc2)C(=O)N[C@H](C(=O)N[C@@H](Cc2ccccc2)C(N)=O)C(C)C)NC(=O)[C@H](Cc2c[nH]c4ccccc24)NC(=O)[C@H](CCCCN)NC(=O)[C@H](Cc2c[nH]cn2)NC(=O)[C@H](Cc2ccc(O)cc2)NC(=O)[C@H](CCCNC(=N)N)NC(=O)[C@H](CO)NC3=O)NC(=O)[C@H](CCCCN)NC(=O)[C@H](CC(=O)O)NC(=O)[C@H](CC(N)=O)NC(=O)[C@H](CC(=O)O)NC(=O)[C@@H]2CCCN2C1=O [compound 340] (H-DCLGFMRKCIPDNDKCCRPNLVCSRYHKWCKYVF-NH2; disulfide 2-17, 9-23, 16-30) | 60 | 5510 | 80
4 | CC[C@H](C)[C@@H]1NC(=O)[C@@H]2CSSC[C@@H]3NC(=O)[C@H](C(C)C)NC(=O)[C@H](CC(C)C)NC(=O)[C@H](CC(N)=O)NC(=O)[C@@H]4CCCN4C(=O)[C@H](CCCNC(=N)N)NC(=O)[C@H](CSSC[C@H](NC(=O)[C@@H](N)CC(=O)O)C(=O)N[C@@H](CC(C)C)C(=O)NCC(=O)N[C@@H](Cc4ccccc4)C(=O)N[C@@H](CCSC)C(=O)N[C@@H](CCCNC(=N)N)C(=O)N[C@@H](CCCCN)C(=O)N2)NC(=O)[C@H](CSSC[C@@H](C(=O)N[C@@H](CCCCN)C(=O)N[C@@H](Cc2ccc(O)cc2)C(=O)N[C@H](C(=O)N[C@@H](Cc2ccccc2)C(N)=O)C(C)C)NC(=O)[C@H](Cc2c[nH]c4ccccc24)NC(=O)[C@H](CCCCN)NC(=O)[C@H](Cc2c[nH]cn2)NC(=O)[C@H](Cc2ccccc2)NC(=O)[C@H](CCCNC(=N)N)NC(=O)[C@H](CO)NC3=O)NC(=O)[C@H](CCCCN)NC(=O)[C@H](CC(=O)O)NC(=O)[C@H](CC(N)=O)NC(=O)[C@H](CC(=O)O)NC(=O)[C@@H]2CCCN2C1=O [compound 341] (H-DCLGFMRKCIPDNDKCCRPNLVCSRFHKWCKYVF-NH2; disulfide 2-17, 9-23, 16-30) | 100 | 5880 | 80
5 | CC[C@H](C)[C@@H]1NC(=O)[C@@H]2CSSC[C@@H]3NC(=O)[C@H](C(C)C)NC(=O)[C@H](CC(C)C)NC(=O)[C@H](CC(N)=O)NC(=O)[C@@H]4CCCN4C(=O)[C@H](CCCNC(=N)N)NC(=O)[C@H](CSSC[C@H](NC(=O)[C@@H](N)CC(=O)O)C(=O)N[C@@H](CC(C)C)C(=O)NCC(=O)N[C@@H](Cc4ccccc4)C(=O)N[C@@H](CCSC)C(=O)N[C@@H](CCCNC(=N)N)C(=O)N[C@@H](CCCCN)C(=O)N2)NC(=O)[C@H](CSSC[C@@H](C(=O)N[C@@H](CCCCN)C(=O)N[C@@H](Cc2ccc(O)cc2)C(=O)N[C@H](C(=O)N[C@@H](Cc2ccccc2)C(N)=O)C(C)C)NC(=O)[C@H](Cc2c[nH]c4ccccc24)NC(=O)[C@H](CCCCN)NC(=O)[C@H](Cc2c[nH]cn2)NC(=O)[C@H](CC(N)=O)NC(=O)[C@H](CCCNC(=N)N)NC(=O)[C@H](CO)NC3=O)NC(=O)[C@H](CCCCN)NC(=O)[C@H](CC(=O)O)NC(=O)[C@H](CC(N)=O)NC(=O)[C@H](CC(=O)O)NC(=O)[C@@H]2CCCN2C1=O [compound 342] (H-DCLGFMRKCIPDNDKCCRPNLVCSRNHKWCKYVF-NH2; disulfide 2-17, 9-23, 16-30) | 100 | 6290 | 90
6 | CC[C@H](C)[C@@H]1NC(=O)[C@@H]2CSSC[C@@H]3NC(=O)[C@H](C(C)C)NC(=O)[C@H](CC(C)C)NC(=O)[C@H](CC(N)=O)NC(=O)[C@@H]4CCCN4C(=O)[C@H](CCCNC(=N)N)NC(=O)[C@H](CSSC[C@H](NC(=O)[C@@H](N)CC(=O)O)C(=O)N[C@@H](CC(C)C)C(=O)NCC(=O)N[C@@H](Cc4ccccc4)C(=O)N[C@@H](CCSC)C(=O)N[C@@H](CCCNC(=N)N)C(=O)N[C@@H](CCCCN)C(=O)N2)NC(=O)[C@H](CSSC[C@@H](C(=O)N[C@@H](CCCCN)C(=O)N[C@@H](Cc2ccc(O)cc2)C(=O)N[C@H](C(=O)N[C@@H](Cc2ccccc2)C(N)=O)C(C)C)NC(=O)[C@H](Cc2c[nH]c4ccccc24)NC(=O)[C@H](CCCCN)NC(=O)[C@H](Cc2c[nH]cn2)NC(=O)CNC(=O)[C@H](CCCNC(=N)N)NC(=O)[C@H](CO)NC3=O)NC(=O)[C@H](CCCCN)NC(=O)[C@H](CC(=O)O)NC(=O)[C@H](CC(N)=O)NC(=O)[C@H](CC(=O)O)NC(=O)[C@@H]2CCCN2C1=O [compound 343] (H-DCLGFMRKCIPDNDKCCRPNLVCSRGHKWCKYVF-NH2; disulfide 2-17, 9-23, 16-30) | 90 | 4070 | 100
7 | CC[C@H](C)[C@@H]1NC(=O)[C@@H]2CSSC[C@@H]3NC(=O)[C@H](C(C)C)NC(=O)[C@H](CC(C)C)NC(=O)[C@H](CC(N)=O)NC(=O)[C@@H]4CCCN4C(=O)[C@H](CCCNC(=N)N)NC(=O)[C@H](CSSC[C@H](NC(=O)[C@@H](N)CC(=O)O)C(=O)N[C@@H](CC(C)C)C(=O)NCC(=O)N[C@@H](Cc4ccccc4)C(=O)N[C@@H](CCSC)C(=O)N[C@@H](CCCNC(=N)N)C(=O)N[C@@H](CCCCN)C(=O)N2)NC(=O)[C@H](CSSC[C@@H](C(=O)N[C@@H](CCCCN)C(=O)N[C@@H](Cc2ccc(O)cc2)C(=O)N[C@H](C(=O)N[C@@H](Cc2ccccc2)C(N)=O)C(C)C)NC(=O)[C@H](Cc2c[nH]c4ccccc24)NC(=O)[C@H](CCCCN)NC(=O)[C@H](Cc2c[nH]cn2)NC(=O)[C@H](C(C)C)NC(=O)[C@H](CCCNC(=N)N)NC(=O)[C@H](CO)NC3=O)NC(=O)[C@H](CCCCN)NC(=O)[C@H](CC(=O)O)NC(=O)[C@H](CC(N)=O)NC(=O)[C@H](CC(=O)O)NC(=O)[C@@H]2CCCN2C1=O [compound 344] (H-DCLGFMRKCIPDNDKCCRPNLVCSRVHKWCKYVF-NH2; disulfide 2-17, 9-23, 16-30) | 40 | 8930 | 60
8 | CC[C@H](C)[C@@H]1NC(=O)[C@@H]2CSSC[C@@H]3NC(=O)[C@H](C(C)C)NC(=O)[C@H](CC(C)C)NC(=O)[C@H](CC(N)=O)NC(=O)[C@@H]4CCCN4C(=O)[C@H](CCCNC(=N)N)NC(=O)[C@H](CSSC[C@H](NC(=O)[C@@H](N)CC(=O)O)C(=O)N[C@@H](CC(C)C)C(=O)NCC(=O)N[C@@H](Cc4ccccc4)C(=O)N[C@@H](CCSC)C(=O)N[C@@H](CCCNC(=N)N)C(=O)N[C@@H](CCCCN)C(=O)N2)NC(=O)[C@H](CSSC[C@@H](C(=O)N[C@@H](CCCCN)C(=O)N[C@@H](Cc2ccc(O)cc2)C(=O)N[C@H](C(=O)N[C@@H](Cc2ccccc2)C(N)=O)C(C)C)NC(=O)[C@H](Cc2c[nH]c4ccccc24)NC(=O)[C@H](CCCCN)NC(=O)[C@H](Cc2c[nH]cn2)NC(=O)[C@@H]2CCCN2C(=O)[C@H](CCCNC(=N)N)NC(=O)[C@H](CO)NC3=O)NC(=O)[C@H](CCCCN)NC(=O)[C@H](CC(=O)O)NC(=O)[C@H](CC(N)=O)NC(=O)[C@H](CC(=O)O)NC(=O)[C@@H]2CCCN2C1=O [compound 345] (H-DCLGFMRKCIPDNDKCCRPNLVCSRPHKWCKYVF-NH2; disulfide 2-17, 9-23, 16-30) | 160 | 6650 | 180
